Among the data in PubChem BioAssay (NCI) are GI50 and TGI values, retold here.

Each structure is given as a SMILES string.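 In this assay, cells in 96-well plates receive the compound at five concentrations for 48 hours. Endpoints are linearly interpolated between the surrounding concentrations. GI50: concentration for 50% inhibition of growth. Definition used: TGI = concentration required for complete inhibition of growth.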 Some results are limits rather than exact numbers.

Among the test systems are NCI/ADR-RES ovarian; HL-60(TB) leukemia; MOLT-4 leukemia; 786-0 renal; HOP-62 NSCLC; A549 NSCLC; DU-145 prostate; HCT-116 colon; LOX IMVI melanoma; UACC-62 melanoma.
Common to all, as to test: NCI-60 cell line screen, 48 h

Consider `Cc1[nH]nc(C(F)(F)F)c1Cc1sc2c(c1C(=O)N1C[C@](C)(O)CO1)c(=O)n(C)c(=O)n2C(C)C`, for which the GI50 in the assay with NCI/ADR-RES ovarian, with HL-60(TB) leukemia, in the assay on MOLT-4 leukemia, in the assay with 786-0 renal, in the assay with HOP-62 NSCLC and in the assay with A549 NSCLC was greater than 100 µM throughout. In addition, the GI50 in the assay on DU-145 prostate, in the assay on HCT-116 colon, in the assay with LOX IMVI melanoma and in the assay with UACC-62 melanoma was greater than 100 µM throughout. The TGI with NCI/ADR-RES ovarian, with HL-60(TB) leukemia, in the assay with MOLT-4 leukemia, with 786-0 renal, in the assay with HOP-62 NSCLC and in the assay with A549 NSCLC was greater than 100 µM throughout. For the same compound, the TGI in the assay on DU-145 prostate, with HCT-116 colon, with LOX IMVI melanoma and with UACC-62 melanoma was greater than 100 µM in each case.

`Clc1cnc(Nc2ccc(OCCN3CCCC3)cc2)nc1NCc1ccco1`: the GI50 with NCI/ADR-RES ovarian is 3.15 µM; in the assay on HL-60(TB) leukemia it was 1.03 µM; in the assay on MOLT-4 leukemia it was 1.86 µM; in the assay with 786-0 renal, 3.15 µM; with HOP-62 NSCLC, 2.24 µM; in the assay on A549 NSCLC, 2.56 µM. Also, the GI50 in the assay with DU-145 prostate was 3.43 µM; in the assay with HCT-116 colon, 2.56 µM; with LOX IMVI melanoma, 1.16 µM; in the assay on UACC-62 melanoma it was 1.83 µM. Further, the TGI in the assay with NCI/ADR-RES ovarian came to 9.53 µM; in the assay on HL-60(TB) leukemia, 5.01 µM; with MOLT-4 leukemia, 8.4 µM; with 786-0 renal it was 13.3 µM; in the assay with HOP-62 NSCLC it was 6.58 µM; with A549 NSCLC, 16.3 µM. The TGI was greater than 100 µM in the assay on DU-145 prostate, 28.6 µM in the assay with HCT-116 colon, 4.26 µM in the assay on LOX IMVI melanoma and 3.73 µM in the assay on UACC-62 melanoma.

For `CCCCCCCCN(CCCCCCCC)CC(O)c1cc(-c2ccccc2)nc2ccc(OC)cc12` (stereo not given), the GI50 with NCI/ADR-RES ovarian is 16.3 µM; with HL-60(TB) leukemia, 18 µM; in the assay on MOLT-4 leukemia it was 23.1 µM; with 786-0 renal, greater than 100 µM; in the assay on HOP-62 NSCLC it was 30.4 µM; in the assay on A549 NSCLC it was greater than 100 µM. Besides, the GI50 in the assay with DU-145 prostate was 37 µM; in the assay with HCT-116 colon it was 15.7 µM; with LOX IMVI melanoma it was 12.6 µM; in the assay with UACC-62 melanoma, 21.5 µM. The TGI with NCI/ADR-RES ovarian is greater than 100 µM; with HL-60(TB) leukemia it was 52.2 µM; in the assay on MOLT-4 leukemia it was greater than 100 µM; with 786-0 renal it was greater than 100 µM; in the assay with HOP-62 NSCLC it was greater than 100 µM; in the assay on A549 NSCLC, greater than 100 µM. Further, the TGI with DU-145 prostate was greater than 100 µM; in the assay with HCT-116 colon it was 68.4 µM; in the assay on LOX IMVI melanoma it was 34.7 µM; in the assay on UACC-62 melanoma, greater than 100 µM.

Take `COC(=O)NC(Cc1ccccc1)NC(=O)OC(C)(C)C` (stereo not given): the TGI with NCI/ADR-RES ovarian, in the assay on HL-60(TB) leukemia, in the assay with MOLT-4 leukemia, in the assay with 786-0 renal, in the assay on HOP-62 NSCLC and in the assay with A549 NSCLC was greater than 100 µM throughout. Also, the TGI in the assay on DU-145 prostate, in the assay with HCT-116 colon, in the assay on LOX IMVI melanoma and with UACC-62 melanoma was greater than 100 µM each time.

As for `COc1ccc(C(=O)/C=C/c2ccc(OCc3cccc(C(F)(F)F)c3)c(OC)c2)cc1OC`, the GI50 in the assay on NCI/ADR-RES ovarian is 42.1 µM; in the assay with HL-60(TB) leukemia, 24.8 µM; with MOLT-4 leukemia, 27.7 µM; in the assay on 786-0 renal, 67.3 µM; with HOP-62 NSCLC it was 51.5 µM; with A549 NSCLC, 67.7 µM. Also, the GI50 in the assay on DU-145 prostate was 72.6 µM; in the assay with HCT-116 colon, 34.9 µM; in the assay on LOX IMVI melanoma, 32.8 µM; in the assay with UACC-62 melanoma, 52.2 µM. In addition, the TGI in the assay with NCI/ADR-RES ovarian is greater than 1000 µM; in the assay on HL-60(TB) leukemia, 70.9 µM; in the assay on MOLT-4 leukemia, greater than 1000 µM; in the assay with 786-0 renal, greater than 1000 µM; in the assay with HOP-62 NSCLC, greater than 1000 µM; in the assay on A549 NSCLC, greater than 1000 µM. The TGI with DU-145 prostate, in the assay on HCT-116 colon, in the assay with LOX IMVI melanoma and in the assay on UACC-62 melanoma was greater than 1000 µM each time.

Consider `COC(=O)C1=C(C)NC(C)=C(C(=O)OC)C1c1cccc(/[N+]([O-])=C/c2ccccc2)c1`, for which the TGI with NCI/ADR-RES ovarian is 58 µM; with HL-60(TB) leukemia, 71 µM; in the assay on MOLT-4 leukemia, 68 µM; with 786-0 renal it was 31.5 µM; in the assay with HOP-62 NSCLC it was greater than 100 µM; in the assay on A549 NSCLC, greater than 100 µM. The TGI in the assay on DU-145 prostate is greater than 100 µM; with HCT-116 colon, 30.4 µM; in the assay with LOX IMVI melanoma, greater than 100 µM; with UACC-62 melanoma, greater than 100 µM.

For the compound `CC12CCC(C1)C(C)(C)C2OC(=O)c1ccccc1N` (stereo not given), the TGI with NCI/ADR-RES ovarian came to 31.7 µM; in the assay on HL-60(TB) leukemia, 28.6 µM; in the assay on MOLT-4 leukemia, 25.1 µM; in the assay on 786-0 renal, 33.5 µM; in the assay with HOP-62 NSCLC it was 32.4 µM; in the assay on A549 NSCLC, 29.2 µM. The TGI was 33.3 µM in the assay with DU-145 prostate, 26.6 µM with HCT-116 colon, 33.8 µM with LOX IMVI melanoma and 29.2 µM in the assay with UACC-62 melanoma.

Turning to `COC(=O)C1=C(C)NC(=S)NC1c1ccc(N(CCCl)CCCl)cc1Cl` (stereo not given), the TGI with NCI/ADR-RES ovarian was greater than 100 µM; in the assay on HL-60(TB) leukemia, greater than 100 µM; with MOLT-4 leukemia, 40 µM; with 786-0 renal, greater than 100 µM; in the assay with HOP-62 NSCLC, greater than 100 µM; in the assay on A549 NSCLC, greater than 58.7 µM. For the same compound, the TGI was greater than 81.1 µM with DU-145 prostate, greater than 100 µM in the assay with HCT-116 colon, greater than 100 µM in the assay on LOX IMVI melanoma and 16.1 µM in the assay on UACC-62 melanoma.

Consider `COc1cc2ncnc(Oc3ccc(NC(=O)Nc4ccc(CN5CCOCC5)c(C(F)(F)F)c4)c4ccccc34)c2cc1OC`, for which the GI50 with NCI/ADR-RES ovarian was 0.919 µM; in the assay with HL-60(TB) leukemia, 0.502 µM; with MOLT-4 leukemia, 0.199 µM; in the assay on 786-0 renal, 0.831 µM; in the assay on HOP-62 NSCLC it was 2.5 µM; with A549 NSCLC, 0.734 µM. The GI50 in the assay with DU-145 prostate was 1.59 µM; with HCT-116 colon, 0.802 µM; in the assay with LOX IMVI melanoma, 1.09 µM; in the assay on UACC-62 melanoma it was 0.637 µM. Further, the TGI is 21 µM in the assay on NCI/ADR-RES ovarian; 2.76 µM in the assay with HL-60(TB) leukemia; 2.08 µM with MOLT-4 leukemia; 6.74 µM in the assay on 786-0 renal; 10.1 µM with HOP-62 NSCLC; 10.5 µM in the assay with A549 NSCLC. In addition, the TGI in the assay with DU-145 prostate was 12.4 µM; with HCT-116 colon, 2.55 µM; in the assay with LOX IMVI melanoma it was 2.82 µM; with UACC-62 melanoma, 3 µM.
